Reference: paper PMC10046377, “Inhibitors of the Oncogenic PA2G4-MYCN Protein-Protein Interface” (Cancers, 2023)

How the values were obtained:
SK-N-BE(2)-C cells = assay: Alamar Blue cell viability assay, SK-N-BE(2)-C; assay type: cell-based; details: Homo sapiens, MYCN amplified neuroblastoma cell line
Description: (§1) The MYCN amplified neuroblastoma cell line SK-N-BE(2)-C was kindly provided by Professor June Biedler (Memorial Sloan Kettering Cancer Centre, New York, NY, USA), and Kelly was obtained from European Collection of Cell Cultures. The two normal lung fibroblast cell lines (MRC-5 and WI-38) were purchased from ATCC. SK-N-BE(2)-C shMYCN#2 doxycycline-inducible cell and Kelly shMYCN#2 doxycycline-inducible cell were custom-made by GenScript (Piscataway, NJ, USA). SK-N-BE(2)-C, SK-N-BE(2)-C shMYCN#2, and SHEP MYCN3 doxycycline-inducible cells were maintained in Dulbecco’s modified Eagle’s medium (DMEM) (Invitrogen, Life Technologies, Waltham, MA, USA) with 10% foetal calf serum (FCS). Kelly and Kelly shMYCN#2 doxycycline-inducible cell were cultured in Roswell Park Memorial Institute (RPMI) 1640 (Invitrogen, Life Technologies) with 10% FCS. MRC-5 and WI-38 were cultured in Alpha-MEM media (Invitrogen, Life Technologies) with 10% FCS. All cells were not cultured for more than 2 months. All used cell lines were authenticated by Cell Bank Australia (Westmead, NSW, Australia) as being free from mycoplasma, and cultured at 37 °C and 5% CO2 in a humidifier incubator.
(§2) Cell viability was determined by the Alamar Blue assay (75 mg resazurin, 12.5 mg methylene blue, 164.5 mg potassium hexacyanoferrate (III), 211 mg potassium hexacyanoferrate (II) trihydrate in 500 mL of phosphate buffered saline). After 6 h incubation with Alamar Blue, the change of fluorescence was measured by Victor 3 multilabel Plate Reader (Perkin Elmer Australia, Melburne, Australia) at an excitation wavelength of 560 nm and an emission wavelength of 590 nm.
(§3) We have shown that the PA2G4 protein increased the half-life of the oncoprotein MYCN through direct binding, and competitive chemical inhibition of this bond by WS6 reduced tumorigenicity both in vitro and in vivo [11]. […] Here, we explored the structure–activity relationship (SAR) of WS6 analogue compounds with the aim to increase efficacy and reduce toxicity. […] The in vitro cytotoxicity of these 14 compounds were measured by cell viability assays using Alamar Blue in MYCN amplified human neuroblastoma (SK-N-BE(2)-C and Kelly) cell lines compared to non-malignant (WI-38, MRC-5) myofibroblast cell lines (Figure 1B,C and Supplementary Figure S1A).

Kelly cells = assay: Alamar Blue cell viability assay, Kelly; assay type: cell-based; details: Homo sapiens, MYCN amplified neuroblastoma cell line
Description: as §1, §2, §3

MRC-5 cells = assay: Alamar Blue cell viability assay, MRC-5 non-malignant myofibroblasts; assay type: cell-based; details: Homo sapiens, MRC5
Description: as §1, §2, §3

WI-38 cells = assay: Alamar Blue cell viability assay, WI-38 non-malignant myofibroblasts; assay type: cell-based; details: Homo sapiens, read-out: IC50 WI-36
Description: as §1, §2, §3

[1] = tested on: neuroblastoma cells (Kelly, SK-N-BE(2)-C) compared to non-malignant myofibroblasts (WI-38, MRC-5); assay: Therapeutic window, neuroblastoma cells versus non-malignant myofibroblasts; assay type: cell-based, human; details: non-malignant myofibroblast IC50 versus neuroblastoma cell IC50
Procedure: as §2, §3

[2] = tested on: TH-MYCN neuroblastoma mice; design: method as in PMID 31501192; details: cited from earlier work

Work on CN1CCN(Cc2ccc(NC(=O)Cc3ccc(Oc4cc(NC(=O)C5CC5)ncn4)cc3)cc2C(F)(F)F)CC1 [WS6, reference compound] yielded an IC50 (SK-N-BE(2)-C cells) of 750 nM, an IC50 (Kelly cells) of 650 nM and an IC50 (MRC-5 cells) of 1400 nM. The IC50 (WI-38 cells) was 1500 nM, the “Therapeutic window (fold difference)” value [1] was 2.1 fold and the tumorigenicity [2] was “significantly decreased tumorigenicity”.
